# From patent publication US9089509B2, “Method of treatment of age-related macular degeneration” (YEDA RESEARCH AND DEVELOPMENT CO., LTD., priority 2006, dated 2015)
# Assays:
# [1] = system: retinal ganglion cells (RGCs); settings: cited from earlier work
# [2] = system: Tg-AD mice (APPK595N, M596L+PS1ΔE9); test: Morris water maze (MWM) spatial learning/memory in Cop-1-vaccinated Tg-AD mice; assay type: in vivo, mouse; settings: acquisition and reversal tasks (FIGS. 7A-7B)
# Description: (§1) Each mouse was subcutaneously injected five times with a total of 100 μg of high-molecular-weight (TV-5010 DS, from batch no. 486220205; Teva Pharmaceutical Industries, Petach Tikva, Israel) emulsified in 200 μl PBS, from experimental day 0 until day 24, twice during the first week and once a week thereafter.
# Spatial learning/memory was assessed by performance on a hippocampus-dependent visuo-spatial learning task in the Morris water maze (MWM) and carried out as described (Lichtenwalner et al., 2001).
# MWM behavior scores were analyzed using […]. Treatment group and trial block were used as sources of variation to evaluate the significance of differences between mean scores during acquisition trial blocks in the MWM.
# Two weeks before the end of the experiment, all mice were tested in a Morris water maze (MWM) for cognitive activity, as reflected by their performance of a hippocampus-dependent spatial learning/memory task. […] Differences in cognitive performance were manifested in both the acquisition (FIG. 7A) and the reversal tasks (FIG. 7B).
# [3] = system: Tg-AD mice (APPK595N, M596L+PS1ΔE9); test: Cop-1 vaccination of Tg-AD mice: neurogenesis in hippocampal dentate gyrus (BrdU, NeuN, DCX); assay type: in vivo, mouse
# Description: For BrdU staining, sections were washed with PBS and incubated in 2N HCl at 37° C. for 30 min. Sections were blocked for 1 h with blocking solution [PBS containing 20% normal horse serum and 0.1% Triton X-100, or PBS containing mouse immunoglobulin blocking reagent obtained from Vector Laboratories (Burlingame, Calif.)].
# For immunohistochemistry, tissue sections were treated with a permeabilization/blocking solution containing 10% FCS, 2% bovine serum albumin, 1% glycine, and 0.05% Triton X-100 (Sigma-Aldrich, St. Louis). Tissue sections were stained overnight at 4° C. with specified combinations of the following primary antibodies: rat anti-BrdU (1:200; Oxford Biotechnology, Kidlington, Oxfordshire, UK), goat anti-doublecortin (anti-DCX) (1:400; Santa Cruz Biotechnology, Santa Cruz, Calif.), and mouse anti-neuronal nuclear protein (anti-NeuN) (1:200; Chemicon). […] Expression of IGF-I was detected by goat anti-IGF-I Abs (1:20; R&D Systems). Expression of TNF-α was detected by goat anti-TNF-α Abs (1:100; R&D Systems). T cells were detected with anti-CD3 polyclonal Abs (rabbit, 1:100; DakoCytomation, CA). […]
# For in-vivo experiments, the numbers of Aβ plaques and CD11b^+ microglia in the hippocampus were counted at 300-μm intervals in 6-8 coronal sections (30 μm) from each mouse. Neurogenesis in the dentate gyrus was evaluated by counting of pre-mature neurons (DCX^+), proliferating cells (BrdU^+), and newly formed mature neurons (BrdU^+/NeuN^+) in six coronal sections (370 μm apart) per mouse brain. To obtain an estimate of the total number of labeled cells per dentate gyrus, the total number of cells counted in the selected coronal sections from each brain was multiplied by the volume index (the ratio between the volume of the dentate gyrus and the total combined volume of the selected sections). […] Quantification of CD3^+, CD11b^+ and CD11c^+ cells were analyzed from 30-50 Aβ-plaques of each mouse tested in this study. […]
# [4] = system: Tg-AD mice (APPK595N, M596L+PS1ΔE9); test: Cop-1 vaccination of Tg-AD mice: Aβ plaques, microglial phenotype and T cells in hippocampus (immunohistochemistry); assay type: in vivo, mouse
# Description: For immunohistochemistry, tissue sections were treated with a permeabilization/blocking solution containing 10% FCS, 2% bovine serum albumin, 1% glycine, and 0.05% Triton X-100 (Sigma-Aldrich, St. Louis). Tissue sections were stained overnight at 4° C. with specified combinations of the following primary antibodies: rat anti-BrdU (1:200; Oxford Biotechnology, Kidlington, Oxfordshire, UK), goat anti-doublecortin (anti-DCX) (1:400; Santa Cruz Biotechnology, Santa Cruz, Calif.), and mouse anti-neuronal nuclear protein (anti-NeuN) (1:200; Chemicon). Secondary antibodies were FITC-conjugated donkey anti-goat, Cy-3-conjugated donkey anti-mouse, and Cy-3- or Cy-5-conjugated donkey anti-rat (1:200; Jackson ImmunoResearch, West Grove, Pa.). CD11b (MAC1; 1:50; BD—Pharmingen) or FITC-conjugated 113-4 was used for labeling of microglia. Anti-MHC-II Abs (rat, clone IBL-5/22; 1:50) was used to detect expression of cell-surface MHC-II proteins. To detect expression of CD11c hamster anti-CD11c (1:100; eBioscience, San Diego, Calif.) was used. Anti-Aβ (human amino-acid residues 1-17) (mouse, clone 6E10; Chemicon) was used to detect expression of human Aβ. Expression of IGF-I was detected by goat anti-IGF-I Abs (1:20; R&D Systems). Expression of TNF-α was detected by goat anti-TNF-α Abs (1:100; R&D Systems). T cells were detected with anti-CD3 polyclonal Abs (rabbit, 1:100; DakoCytomation, CA). Propidium iodide (1 μg/ml; Molecular Probes, Invitrogen, Carlsbad, Calif.), was used for nuclear staining.
# Nineteen adult double-transgenic APPK595N, M596L+PS1ΔE9 mice of the B6C3-Tg (APPswe, PSEN1dE9) 85 Dbo/J strain (Borchelt et al., 1997) were purchased from The Jackson Laboratory (Bar Harbor, Me.) and were bred and maintained in the Animal Breeding Center of The Weizmann Institute of Science. All animals were handled according to the regulations formulated by the Weizmann Institute's Animal Care and Use Committee, and all experiments and procedures were approved by the Weizmann Institute's Animal Care and Use Committee.
# as §1
# For in-vivo experiments, the numbers of Aβ plaques and CD11b^+ microglia in the hippocampus were counted at 300-μm intervals in 6-8 coronal sections (30 μm) from each mouse. Neurogenesis in the dentate gyrus was evaluated by counting of pre-mature neurons (DCX^+), proliferating cells (BrdU^+), and newly formed mature neurons (BrdU^+/NeuN^+) in six coronal sections (370 μm apart) per mouse brain. To obtain an estimate of the total number of labeled cells per dentate gyrus, the total number of cells counted in the selected coronal sections from each brain was multiplied by the volume index (the ratio between the volume of the dentate gyrus and the total combined volume of the selected sections). Specificity of BrdU+/NeuN+ co-expression was assayed using the confocal microscope (LSM 510) in optical sections at 1-μm intervals. Quantification of CD3^+, CD11b^+ and CD11c^+ cells were analyzed from 30-50 Aβ-plaques of each mouse tested in this study. Cell counts, numbers of Aβ plaques, plaque areas, and intensity of NeuN staining per unit area in the dentate gyrus were evaluated automatically using Image-Pro Plus 4.5 software (Media Cybernetics, Carlsbad, Calif.).
# We verified the presence of both transgenes in each mouse by PCR amplification of genomic DNA. Tg-AD mice aged approximately 8 months were then vaccinated subcutaneously with Cop-1 (n=6) twice during the first week and once a week thereafter. Age-matched untreated Tg-AD mice (n=7) and non-Tg littermates (n=6) served, respectively, as untreated-Tg and wild-type controls. Seven weeks after the first Cop-1 injection all the mice were euthanized and analyzed. […]
# [5] = vaccinated Tg-AD mice (FIG. 2D)
substance,measurement,setting,value
glatiramer acetate [Cop-1],outcome of weekly administration of adjuvant-free agent,"[1]; model of chronically elevated intraocular pressure (Bakalash et al., 2005)",neuroprotection
same,RGC loss,"[1]; rat model of chronically high intraocular pressure, vaccination",significantly reduces RGC loss
same,MWM performance vs non-Tg littermates,[2],did not differ significantly
same,MWM performance vs untreated-Tg-AD mice,[2],superior to that of the untreated-Tg-AD mice
same,newly formed mature neurons (BrdU+/NeuN+) in dentate gyrus,[3]; compared to non-Tg littermates (FIG. 6B),similar
same,pre-mature neurons (DCX+ cells) in dentate gyri,[3]; relative to non-Tg littermates (FIG. 6C),slightly but significantly more
same,proliferating cells (BrdU+) in dentate gyrus,[3]; vs untreated-Tg counterparts (FIG. 6A),significantly more
same,Aβ plaques in brain cryosections stained for human Aβ,"[4]; s.c. vaccination, seven weeks after first injection, vs untreated Tg-AD mice (FIG. 2A)",very few
same,MHC-II expression by microglia adjacent to residual Aβ plaques,[4]; [5],most of the microglia adjacent to residual Aβ plaques expressed MHC-II
same,TNF-α expression by microglia adjacent to residual Aβ plaques,[4]; [5],hardly any of them expressed TNF-α
same,IGF-I expression by MHC-II+ microglia,[4]; vaccinated Tg-AD mice (FIG. 2F),found to express IGF-I
same,CD11b+ cells that became CD11b+/CD11c+ cells (associated with Aβ-plaque),"[4]; vaccinated Tg-AD mice, 25% in untreated Tg-AD mice (FIG. 3C)",87%
same,NeuN+ staining in hippocampal CA1 and dentate gyrus,[4]; vaccinated Tg-AD mouse relative to non-Tg littermate (FIG. 2A),almost normal
same,area occupied by the plaques (Aβ-immunoreactivity),[4]; vs age-matched untreated Tg-AD mice (FIG. 2J),significantly smaller
same,total number of Aβ-plaques (30-μm hippocampal slice),[4]; vs untreated Tg-AD mice (FIG. 2I),significantly fewer plaques
same,CD11b+ microglia in hippocampus,[4]; vs untreated Tg-AD mice (FIG. 2K),significantly fewer
same,T cells (CD3+) associated with Aβ-plaque,[4]; vs untreated Tg-AD mice (FIG. 2L),significantly more
same,number of CD11b+ cells associated with Aβ-plaque,[4]; vs untreated Tg-AD mice (FIG. 3B),significantly decreased
